Data as given in patent US12624017B2, “Salt form of isoquinolinone type compound as rock inhibitor and preparation method therefor” (GUANGZHOU OCUSUN OPHTHALMIC BIOTECHNOLOGY CO., LTD., priority 2020, dated 2026).

Tested on: New Zealand rabbits with normal intraocular pressure
Test: Intraocular pressure reduction, normal intraocular pressure, eye drops in both eyes for 14 days (Operation I)
Type: in vivo, New Zealand white rabbits
Settings: for Change in intraocular pressure: vs negative control
Text: An intraocular pressure reduction effect and potential ocular toxicity of the compound of formula (I) were inspected with rabbits with normal intraocular pressure by repeated administration of eye drops for 14 days.
Male New Zealand white rabbits, aged 97 to 127 days, weighted 2.6-3.5 kg, purchased from Pizhou Oriental Breeding Co., Ltd.
The Male New Zealand white rabbits were randomly divided into 7 groups according to body weights, 6 rabbits/group. The animals in Groups 1 to 7 were administrated dropwise with a solvent/control/test article in both eyes in an administration volume of 50 μL/eye, once a day for 14 consecutive days, and the day of first administration was recorded as Day 1. The intraocular pressures of the animals were measured before administration, as well as at 1, 2, 4, 6, 8 and 10 h after administration, respectively. On Days 2 to 14, the intraocular pressures of animals in the K-115 administration group were measured at 1 h after daily administration; and intraocular pressures of the animals in the remaining groups were measured at 4 h after daily administration.

[1] = 0.5 mg/mL, Day 1, 1 h after administration
[2] = 0.5 mg/mL, Day 1, 2 h after administration
[3] = 0.5 mg/mL, Day 1, 4 h after administration
[4] = 0.5 mg/mL, Day 1, 6 h after administration
[5] = 0.5 mg/mL, Day 1, 8 h after administration
[6] = 0.5 mg/mL, Day 1, 10 h after administration
[7] = 0.5 mg/mL, Day 1, before administration
[8] = 1.0 mg/mL once a day, Day 2, 4 h after daily administration
[9] = 1.0 mg/mL once a day, Day 3, 4 h after daily administration
[10] = 1.0 mg/mL once a day, Day 4, 4 h after daily administration
[11] = 1.0 mg/mL once a day, Day 5, 4 h after daily administration
[12] = 1.0 mg/mL once a day, Day 6, 4 h after daily administration
[13] = 1.0 mg/mL once a day, Day 7, 4 h after daily administration
[14] = 1.0 mg/mL, Day 1, 1 h after administration
[15] = 1.0 mg/mL, Day 1, 2 h after administration
[16] = 1.0 mg/mL, Day 1, 4 h after administration
[17] = 1.0 mg/mL, Day 1, 6 h after administration
[18] = 1.0 mg/mL, Day 1, 8 h after administration
[19] = 1.0 mg/mL, Day 1, 10 h after administration

Cc1ccc(C(=O)OCn2cc(C)c3c(S(=O)(=O)N4CC[C@H](N)C4)cccc3c2=O)c(C)c1 [Compound of formula (I)]
Change in intraocular pressure (0.5 mg/mL once a day, Day 10, 4 h after daily administration): 3 mmHg | Change in intraocular pressure (0.5 mg/mL once a day, Day 11, 4 h after daily administration): 3.25 mmHg | Change in intraocular pressure (0.5 mg/mL once a day, Day 12, 4 h after daily administration): 3.28 mmHg | Change in intraocular pressure (0.5 mg/mL once a day, Day 13, 4 h after daily administration): 3.31 mmHg | Change in intraocular pressure (0.5 mg/mL once a day, Day 14, 4 h after daily administration): 3.72 mmHg | Average intraocular pressure in both eyes [1]: 8.83 mmHg | Change in intraocular pressure [1]: 1.48 mmHg | Average intraocular pressure in both eyes [2]: 7.56 mmHg | Change in intraocular pressure [2]: 3.41 mmHg | Average intraocular pressure in both eyes [3]: 7.11 mmHg | Change in intraocular pressure [3]: 4.2 mmHg | Average intraocular pressure in both eyes [4]: 9.61 mmHg | Change in intraocular pressure [4]: 2.33 mmHg | Average intraocular pressure in both eyes [5]: 9.06 mmHg | Change in intraocular pressure [5]: 3.91 mmHg | Average intraocular pressure in both eyes [6]: 9.97 mmHg | Change in intraocular pressure [6]: 4.45 mmHg | Average intraocular pressure in both eyes [7]: 10.11 mmHg | Change in intraocular pressure [7]: −0.22 mmHg | Average intraocular pressure in both eyes [8]: 7.64 mmHg | Change in intraocular pressure [8]: 3.44 mmHg | Average intraocular pressure in both eyes [9]: 7.50 mmHg | Change in intraocular pressure [9]: 2.89 mmHg | Average intraocular pressure in both eyes [10]: 7.33 mmHg | Change in intraocular pressure [10]: 3.28 mmHg | Average intraocular pressure in both eyes [11]: 7.44 mmHg | Change in intraocular pressure [11]: 3.53 mmHg | Average intraocular pressure in both eyes [12]: 6.92 mmHg | Change in intraocular pressure [12]: 2.39 mmHg | Average intraocular pressure in both eyes [13]: 7.00 mmHg | Change in intraocular pressure [13]: 3.06 mmHg | Change in intraocular pressure (1.0 mg/mL once a day, Day 8, 4 h after daily administration): 4.03 mmHg | Change in intraocular pressure (1.0 mg/mL once a day, Day 9, 4 h after daily administration): 2.5 mmHg | Change in intraocular pressure (1.0 mg/mL once a day, Day 10, 4 h after daily administration): 2.44 mmHg | Change in intraocular pressure (1.0 mg/mL once a day, Day 11, 4 h after daily administration): 2.19 mmHg | Change in intraocular pressure (1.0 mg/mL once a day, Day 12, 4 h after daily administration): 2.64 mmHg | Change in intraocular pressure (1.0 mg/mL once a day, Day 13, 4 h after daily administration): 3.33 mmHg | Change in intraocular pressure (1.0 mg/mL once a day, Day 14, 4 h after daily administration): 3.53 mmHg | Average intraocular pressure in both eyes [14]: 7.08 mmHg | Change in intraocular pressure [14]: 3.23 mmHg | Average intraocular pressure in both eyes [15]: 6.67 mmHg | Change in intraocular pressure [15]: 4.3 mmHg | Average intraocular pressure in both eyes [16]: 6.44 mmHg | Change in intraocular pressure [16]: 4.87 mmHg | Average intraocular pressure in both eyes [17]: 8.00 mmHg | Change in intraocular pressure [17]: 3.94 mmHg | Average intraocular pressure in both eyes [18]: 9.22 mmHg | Change in intraocular pressure [18]: 3.75 mmHg | Average intraocular pressure in both eyes [19]: 10.56 mmHg | Change in intraocular pressure [19]: 3.86 mmHg | Average intraocular pressure in both eyes (1.0 mg/mL, Day 1, before administration): 9.94 mmHg
